Data reported in patent US8981052B2, “JNK inhibitor molecules” (Xigen Inflammation Ltd., priority 2010, dated 2015).
Where a SMILES comes first, the peptide text is derived from it. Where no end group is shown, it is not given here. [ ]: non-standard residue; d: D form.

How the values were obtained:
His-JNK1 = biological target: T1, His-JNK1 (Homo sapiens, UniProt P45983); test: AlphaScreen assay, inhibition of JNK1 mediated phosphorylation of biotin-cJun substrate; type: biochemical; settings: compared with L-TAT-IB1; JNK isoform not stated
T1 construct: His; purchased Upstate 14-327
Description: In the following the standard operating procedure will be set forth describing how the Inhibitory efficacy of JNK inhibitors according to the present invention was measured. The method allows to measure in vitro, in a non radioactive standardized assay, the ability of a candidate compound to decrease the phosphorylation of the c-Jun specific substrate by JNK. Moreover, it will be illustrated how to determine the inhibitory effect (IC50) and the Ki of a chosen compound for JNK.
• His-JNK1 (ref 14-327, Upstate, 10 μg in 100 μl: concentration: 2.2 μM) 5 nM final • His-JNK2 (ref 14-329, Upstate, 10 μg in 100 μl: concentration: 2 μM) 5 nM final • His-JNK3 (ref 14-501, Upstate, 10 μg in 100 μl: concentration: 1.88 μM) 5 nM final • Anti-Phospho-cJun (ref 06-828, Upstate, lot DAM1503356, concentration: 44.5 μM) 10 nM final • Biotin-cJun (29-67): • sequence: Biotin-[…] […]
The bioluminescent energy transfer was read on the Fusion Alpha Plate reader (Perkin Elmer). […]

[1] = Stability (half-life) of JNK inhibitors in human serum, UPLC-MS
Description: The experiment was performed as described by Tugyi et al. (Proc Natl Acad Sci USA, 2005, 413-418). The remaining intact peptide was quantified by UPLC-MS.

[2] = tested on: primary rat lymph-nodes purified T cells; test: CD3/CD28-induced IL-2 release in primary rat lymph-nodes purified T cells; type: cell-based; settings: inhibitor added 1 h before CD3/CD28 (2 μg/mL), supernatant after 24 h
Description: Control rat were sacrificed and lymph-nodes were harvested. T cells further were purified (using magnetic negative selection) and plated into 96-well plates at 200,000 cells/well. Cells were treated with anti-rat CD3 and anti-rat CD28 antibodies (2 μg/mL). JNK inhibitor with SEQ ID NO: 172 was added to the cultures 1 h before CD3/CD28 treatment and IL-2 release was assessed in supernatant 24 h after treatment.
Control animal were sacrificed, lymph nodes (LN) were harvested and kept in complete RPMI medium. LN were smashed with complete RPMI on 70 μm filter using a 5 ml piston. A few drops of media were added to keep strainer wet. Cells were centrifuged for 7 min at 450 g and 4° c. Pellet was resuspended in 5 ml fresh medium. Cells were passed again through cell strainer. An aliquot of cells was counted, while cells were centrifuged again 10 min at 1400 rpm and 4° c. Cells were resupended in MACS buffer (80 μl of MACS buffer per 10^7 cells). 10 μl of anti-rat MHC microbeads were added per 10 million cells, cells were incubated for 15 min at 4°-8° C. Cells were washed with 15 ml MACS buffer and centrifuge for 7 min at 700 g and 4° C. […] Resuspended cells were counted and plated at density of 200000 cells/well in 100 μl of complete medium. […] Cytokines were then measured using standard Elisa kits. Results are expressed as pg/ml of supernatant of the measured cytokine. […]

Hela cells = test: Internalization of TAT derived transporters, 24 hours incubation, fluorescence of cell extracts; type: cell-based; settings: FIG. 6; Y in position 2
Description: The transporter sequences analyzed correspond to SEQ ID NOs: 52-94 plus SEQ ID NOs: 45, 47, 46, 43 and 99 (FIG. 6a) and SEQ ID NOs: 100-147 (FIG. 6b). […] Hela cells were incubated 24 hours in 96 well plate with […] of the respective transporters. The cells were then washed twice with an acidic buffer (0.2M Glycin, 0.15M NaCl, pH 3.0) and twice with PBS. Cells were broken by the addition of RIPA lysis buffer. The relative amount of internalized peptide was then determined by reading the fluorescence intensity (Fusion Alpha plate reader; PerkinElmer) of each extract followed by background subtraction.
Hela cells were incubated 24 hours in 96 well plate with […] of the r3-L-TAT-derived transporters. The cells were then washed twice with an acidic buffer (0.2M Glycin, 0.15M NaCl, pH 3.0) and twice with PBS. Cells were broken by the addition of RIPA lysis buffer. The relative amount of internalized peptide was then determined by reading the fluorescence intensity (Fusion Alpha plate reader; PerkinElmer) of each extract followed by background subtraction

T1 sequence (P45983 1-384 isoform P45983-2): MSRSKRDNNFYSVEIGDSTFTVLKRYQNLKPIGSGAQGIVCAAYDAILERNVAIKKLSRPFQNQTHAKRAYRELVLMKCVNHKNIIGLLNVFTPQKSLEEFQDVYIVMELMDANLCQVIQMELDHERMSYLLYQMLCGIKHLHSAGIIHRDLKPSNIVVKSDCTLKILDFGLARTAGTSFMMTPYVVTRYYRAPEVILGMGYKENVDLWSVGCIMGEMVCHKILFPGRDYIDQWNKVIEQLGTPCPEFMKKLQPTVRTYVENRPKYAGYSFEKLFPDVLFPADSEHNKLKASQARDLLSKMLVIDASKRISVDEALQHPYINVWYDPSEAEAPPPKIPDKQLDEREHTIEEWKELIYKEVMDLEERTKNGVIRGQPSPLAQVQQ

With “dqsrpvqpflnlttprkprpprrrqrrkkrg ([dD][dQ][dS][dR][dP][dV][dQ][dP][dF][dL][dN][dL][dT][dT][dP][dR][dK][dP][dR][dP][dP][dR][dR][dR][dQ][dR][dR][dK][dK][dR]G) [SEQ ID NO: 197]” the “inhibitory capacity (JNK inhibition, FIG. 4)” value (His-JNK1) was “significant decrease in inhibitory capacity in comparison to L-TAT-IB1”, the “sensitivity to proteolytic degradation” value [1] was “extremely stable towards proteolytic digestion” and the “CD3/CD28-induced IL-2 release” value [2] was “Dose-dependent inhibition”.
In the case of `CC(C)C[C@H](NC(=O)[C@H](CC(N)=O)NC(=O)[C@H](CC(C)C)NC(=O)[C@@H](NC(=O)[C@@H](C)NC(=O)[C@@H]1CCCN1C(=O)[C@H](CCCNC(=N)N)NC(=O)[C@@H](CCCCN)NC(=O)[C@@H]1CCCN1C(=O)[C@H](CCCNC(=N)N)NC(=O)[C@@H](CCCNC(=N)N)NC(=O)[C@H](CCCNC(=N)N)NC(=O)[C@H](CCCNC(=N)N)NC(=O)[C@H](CCC(N)=O)NC(=O)[C@@H](CCCNC(=N)N)NC(=O)[C@H](CCCNC(=N)N)NC(=O)[C@H](CCCCN)NC(=O)[C@H](CCCCN)NC(=O)[C@H](N)CCCNC(=N)N)[C@@H](C)O)C(=O)N[C@H](Cc1ccccc1)C(N)=O` [SEQ ID NO: 172, rKKRrQRRrRPkRPaTLNLf] (H-[dR]KKR[dR]QRR[dR]RP[dK]RP[dA]TLNL[dF]-NH2; N-terminus assumed), the “time until completely degraded” value ([1]; human serum (50%; 10 and 50% in PBS 1×), 0.1 mM peptide) is reported as 14 days.
For “rYKRrQRRr ([dR]YKR[dR]QRR[dR]) [SEQ ID NO: 142]”, the transporter activity (Hela cells) was “highest transporter activity”.
